Assay results from patent US20040110963A1, “Novel hydrazones” (priority 2001, published 2004).
Values after ≈ are worked out from the molar mass of the structure shown.

Columns and labels:
[1] = target: enzyme I of the bacterial phosphotransferase system (PTS) (Escherichia coli, UniProt P08839); test: Assay for Enzyme I dependent PEP: peptide phosphotransferase activity (LDH-coupled, NADH read-out at 340 nm); assay type: biochemical; conditions: enzyme I 0.75 μM, 0.8 mM PEP, pH 7.5; read-out: Inhibition of PTS (IC50 in μM)
Excerpt: The determination of activity of a compound of the present invention in the PTS may be summarized as follows:
Assay for Enzyme I Dependent PEP:
Peptide Phosphotransferase Activity. [formula]
To find inhibitors of Enzyme I of the PTS by high throughput screening, an in vitro assay based on spectrophotometric read out at 340 nm has been set up. The assay comprises of three major components, purified enzyme I in catalytic amounts, Phosphoenol Pyruvate (PEP) as the phosphoryl donor substrate and purified HPr as the phosphoryl acceptor substrate.
The assay couples the formation of pyruvate formed from PEP to lactate, catalyzed by lactate dehydrogenase. The disappearance of NADH, cofactor required by lactate dehydrogenase, is determined spectrophotometerically at 340 nm. The assay is done in a U-shaped microtiter plate format, and quantitation is done using microplate absorbance reader.
100 μl reaction mixture contained 0.8 mM PEP, 0.2 mM NADH, 3 μg lactate dehydrogenase (Boehringer Mannheim), 50 mM KPi pH=7.5, 2.5 mM dithiothreitol, 2.5 mM NaF, 5 mM MgCI2, and between 50 and 100 μM of the compound. The reaction is started by the addition of enzyme I (final concentration 0.75 μM). In a control experiment the compound is replaced by DMSO.

Escherichia coli DC2 = test: In vitro antibacterial activity (MIC, NCCLS M7-A5 dilution susceptibility test); assay type: cell-based; conditions: for MIC: read-out: Minimum Inhibitory Concentration (MIC) Escherichia coli DC2
Description: (§1) Antimicrobial susceptibility testing was performed in accordance with the National Committee for Clinical Laboratory Standards (NCCLS) procedure [M7-A5, 2001: Methods for Dilution Antimicrobial Susceptibility Tests for Bacteria That Grow Aerobically; Approved Standard-Fifth Edition American National Standard].

[2] = tested on: Staphylococcus aureus ATCC25923; test: as above; assay type: cell-based; conditions: for MIC: read-out: Minimum Inhibitory Concentration (MIC) Staphylococcus aureus ATCC25923
Description: as §1

| Compound | IC50 [1] [µM] | MIC (Escherichia coli DC2) [µg/mL] | MIC [2] [µg/mL] | further results |
| --- | --- | --- | --- | --- |
| 4-chloro-N′-(2-hydroxy-3-chloro-benzylidene)-benzohydrazide [Example 36] | 100 |  |  |  |
| O=C(NN=Cc1cc(O)ccc1O)c1ccccc1 [Example 1, N′-(2,5-Dihydroxy-benzylidene)-benzohydrazide] | 15 | 128 (≈ 499 µM) | 64 (≈ 250 µM) |  |
| O=C(Cc1c[nH]c2ccccc12)NN=Cc1ccccc1O [Example 2, N′-(2-Hydroxy-benzylidene)-2-(1H-indol-3-yl)-acetohydrazide] | 50 |  |  |  |
| O=C(NN=Cc1cc(O)ccc1O)c1cccc2ccccc12 [Example 3, N′-(2,5-Dihydroxy-benzylidene)-naphthalene-1-carbohydrazide] | 6 |  |  |  |
| COc1cc(C(=O)NN=Cc2ccc(O)c(O)c2O)cc(OC)c1OC [Example 4, 3,4,5-Trimethoxy-N′-(2,3,4-trihydroxy-benzylidene)-benzohydrazide] | 15 | 128 (≈ 353 µM) | 128 (≈ 353 µM) |  |
| Nc1ccc(Cl)cc1C(=O)NN=Cc1ccccc1O [Example 5, 2-Amino-5-chloro-N′-(2-hydroxy-benzylidene)-benzohydrazide] | 6 |  |  |  |
| O=C(NN=Cc1ccc(O)cc1O)c1cccc(C(F)(F)F)c1 [Example 6, 3-Trifluoromethyl-N′-(2,4-dihydroxy-benzylidene)-benzohydrazide] | 10 | 32 (≈ 98.7 µM) | > 128 |  |
| COc1cccc(C(=O)NN=C(C)c2ccccc2O)c1 [Example 7, 3-Methoxy-N′-[1-(2-hydroxy-phenyl)-ethylidene]-benzohydrazide] | 8 |  |  |  |
| COc1cccc(C(=O)NN=Cc2cc(O)ccc2O)c1 [Example 8, 3-Methoxy-N′-(2,5-dihydroxy-benzylidene)-benzohydrazide] | 15 |  |  |  |
| O=C(NN=Cc1ccc(O)c(O)c1O)c1ccc(Cl)c(Cl)c1 [Example 9, 3,4-Dichloro-N′-(2,3,4-trihydroxy-benzylidene)-benzohydrazide] | 75 | 32 (≈ 93.8 µM) | 8 (≈ 23.5 µM) |  |
| O=C(NN=Cc1cc(O)ccc1O)c1ccc(Cl)cc1 [Example 10, 4-Chloro-N′-(2,5-dihydroxy-benzylidene)-benzohydrazide] | 8 | > 128 | 128 (≈ 440 µM) |  |
| O=C(NN=Cc1cc(O)ccc1O)c1ccc(O)cc1 [Example 11, 4-Hydroxy-N′-(2,5-dihydroxy-benzylidene)-benzohydrazide] | 0.5 |  |  |  |
| O=C(NN=Cc1cc(O)ccc1O)c1ccc(Cl)c(Cl)c1 [Example 12, 3,4-Dichloro-N′-(2,5-dihydroxy-benzylidene)-benzohydrazide] | 0.7 |  |  |  |
| O=C(NN=Cc1cc(O)ccc1O)c1cccc(Cl)c1 [Example 13, 3-Chloro-N′-(2,5-dihydroxy-benzylidene)-benzohydrazide] | 0.7 |  |  |  |
| COc1cc(C(=O)NN=Cc2cc(Cl)ccc2O)ccc1O [Example 14, 4-Hydroxy-3-methoxy-N′-(5-chloro-2-hydroxy-benzylidene)-benzohydrazide] | 25 | 128 (≈ 399 µM) | 128 (≈ 399 µM) |  |
| CC(=NNC(=O)c1ccccc1)c1cc(O)ccc1O [Example 15, N′-[1-(2,5-Dihydroxy-phenyl)-ethylidene]-benzohydrazide] | 6 |  |  |  |
| COc1cc(C(=O)NN=Cc2cc(O)ccc2O)ccc1O [Example 16, N′-(2,5-Dihydroxy-benzylidene)-4-hydroxy-3-methoxy-benzohydrazide] | 4 |  |  |  |
| Cc1ccc(O)c(C=NNC(=O)c2ccccc2)c1 [Example 17, N′-(2-Hydroxy-5-methyl-benzylidene)-benzohydrazide] | 6 |  |  |  |
| CNc1ccccc1C(=O)NN=Cc1cc(Cl)ccc1O [Example 18, 2-Methylamino-N′-(5-chloro-2-hydroxy-benzylidene)-benzohydrazide] | 4 |  |  |  |
| CNc1ccccc1C(=O)NN=Cc1cc(O)ccc1O [Example 19, 2-Methylamino-N′-(2,5-dihydroxy-benzylidene)-benzohydrazide] | 2 |  |  |  |
| Cc1cccc(C(=O)NN=Cc2cc(Cl)ccc2O)c1 [Example 20, 3-Methyl-N′-(5-chloro-2-hydroxy-benzylidene)-benzohydrazide] | 4 |  |  |  |
| O=C(NN=Cc1cc(Cl)ccc1O)c1cccc(C(F)(F)F)c1 [Example 21, 3-Trifluoromethyl-N′-(5-chloro-2-hydroxy-benzylidene)-benzohydrazide] | 12 | > 128 | 16 (≈ 46.7 µM) |  |

| Compound | IC50 [1] [µM] | MIC (Escherichia coli DC2) [µg/mL] | MIC [2] [µg/mL] | further results |
| --- | --- | --- | --- | --- |
| CNc1ccccc1C(=O)NN=C(C)c1ccccc1O [Example 22, 2-methylamino-N′-[1-(2-hydroxy-phenyl)-ethylidene]-benzohydrazide] | 2 |  |  |  |
| CC(=O)Nc1ccccc1C(C)=NNC(=O)c1ccccc1 [Example 23, N-[2-[1-(2-Benzoyl-hydrazono)-ethyl]-phenyl]-acetamide] | 250 |  |  |  |
| CC(=NNC(=O)c1ccc(Cl)cc1)c1ccccc1N [Example 24, 4-Chloro-N′-[1-(2-amino-phenyl)-ethylidene]-benzohydrazide] | 0.8 |  |  |  |
| COc1cccc(C(=O)NN=C(C)c2ccccc2N)c1 [Example 25, 3-Methoxy-N′-[1-(2-Amino-phenyl)-ethylidene]-benzohydrazide] | 20 |  |  |  |
| O=C(NN=Cc1cccc(O)c1O)c1ccccc1 [Example 26, N′-(2,3-Dihydroxy-benzylidene)-benzohydrazide] | 50 |  |  |  |
| COc1cccc(C(=O)NN=Cc2ccccc2O)c1 [Example 27, 3-Methoxy-N′-(2-hydroxy-benzylidene)-benzohydrazide] | 7 |  |  |  |
| O=C(NN=Cc1ccc(O)c(O)c1O)c1ccccc1 [Example 28, N′-(2,3,4-Trihydroxy-benzylidene)-benzohydrazide] | 3 |  |  |  |
| O=C(NN=Cc1ccccc1O)c1ccc(Br)cc1 [Example 31, 4-Bromo-N′-(2-hydroxy-benzylidene)-benzohydrazide] | 75 |  |  |  |
| O=C(NN=Cc1ccccc1O)c1cccc(C(F)(F)F)c1 [Example 32, 3-Trifluoromethyl-N′-(2-hydroxy-benzylidene)-benzohydrazide] | 7 |  |  |  |
| Cc1cccc(C(=O)NN=Cc2cc(O)ccc2O)c1 [Example 33, 3-Methyl-N′-(2,5-dihydroxy-benzylidene)-benzohydrazide] | 2 |  |  |  |
| O=C(NN=Cc1cc(O)ccc1O)c1cccc(C(F)(F)F)c1 [Example 34, 3-Trifluoromethyl-N′-(2,5-dihydroxy-benzylidene)-benzohydrazide] | 15 |  |  |  |
| CC(=NNC(=O)c1ccc(O)cc1)c1cc(O)ccc1O [Example 35, 4-Hydroxy-N′-[1-(2,5-dihydroxy-phenyl)-ethylidene]-benzohydrazide] | 1.75 |  |  |  |
| O=C(NN=Cc1ccc(O)cc1O)c1ccc(Cl)cc1 [Example 37, 4-Chloro-N′-(2,4-dihydroxy-benzylidene)-benzohydrazide] | 20 |  |  |  |
| O=C(NN=Cc1cc(Cl)ccc1O)c1cccc(Cl)c1 [Example 38, 3-Chloro-N′-(2-hydroxy-5-chloro-benzylidene)-benzohydrazide] | 75 |  |  |  |
| O=C(NN=Cc1cc(O)c(O)cc1O)c1ccc(Cl)cc1 [Example 47, 4-Chloro-N′-(2,4,5-trihydroxy-benzylidene)-benzohydrazide] |  | 64 (≈ 209 µM) | 8 (≈ 26.1 µM) |  |
| O=C(NN=Cc1cc(Cl)cc(Cl)c1O)c1ccccc1 [Example 48, N′-(2-Hydroxy-3,5-dichloro-benzylidene)-benzohydrazide] |  | > 128 | 128 (≈ 414 µM) |  |
| O=C(NN=Cc1ccc(O)c(O)c1O)c1cccc(Cl)c1 [Example 49, 3-Chloro-N′-(2,3,4-trihydroxy-benzylidene)-benzohydrazide] |  | 64 (≈ 209 µM) | 16 (≈ 52.2 µM) |  |
| O=C(NN=Cc1cc(O)c(O)cc1O)c1cccc(C(F)(F)F)c1 [Example 50, 3-Trifluoromethyl-N′-(2,4,5-trihydroxy-benzylidene)-benzohydrazide] |  | > 128 | 32 (≈ 94 µM) |  |
| O=C(NN=Cc1ccc(O)c(O)c1O)c1cccc(C(F)(F)F)c1 [Example 51, 3-Trifluoromethyl-N′-(2,3,4-trihydroxy-benzylidene)-benzohydrazide] |  | 64 (≈ 188 µM) | 8 (≈ 23.5 µM) |  |
| CC(=NNC(=O)c1ccc(Cl)c(Cl)c1)c1ccc(O)c(O)c1O [Example 52, 3,4-Dichloro-N′-[1-(2,3,4-dihydroxy-phenyl)-ethylidene]-benzohydrazide] |  |  |  | Minimum Inhibitory Concentration (MIC) Escherichia coli DC2 (Escherichia coli DC2): 64 micrograms/ml; Minimum Inhibitory Concentration (MIC) Staphylococcus aureus ATCC25923 [2]: 4 micrograms/ml |
| CN(N=Cc1ccc(O)c(O)c1O)C(=O)c1ccc(Cl)c(Cl)c1 [Example 53, 3,4-Dichloro-N-methyl-N′-(2,3,4-trihydroxy-benzylidene)-benzohydrazide] |  | > 128 | 128 (≈ 360 µM) |  |
